For assay [1], the target named is human PTPN2 (1-387) (Homo sapiens (Human), UniProt P17706). Description: Human PTPN2 Biochemical Assay. The conditions noted are these: DiFMUP substrate. On the procedure: Human PTPN2 Biochemical Assay
Test compounds were dissolved in DMSO, and 10-point serial 3-fold dilution series in DMSO were prepared in Echo Qualified 384-well Polypropylene Microplates (Labcyte, San Jose, CA) (top concentration 50 µM). Assay plates (384-well low volume black plates; Corning #3820, Corning, NY) were prepared by dispensing 50 nL of test compound, and DMSO (for high and low controls) by ECHO acoustic dispenser (Labcyte, San Jose CA). This was followed by addition of 5 μL of 0.2 nM human PTPN2 (1-387) solution (prepared in the assay buffer, 50 mM Tris pH 7.4, 150 mM NaCl, 0.01% Tween20, 0.5 mM dithiothreitol) to all wells except the low control. 5 μl of assay buffer was added into the low control, then the plate was incubated for 30 minutes at room temperature. Subsequently, 5 μl of 100 µM DiFMUP (6,8-difluoro-4-methylumbelliferyl phosphate) solution (prepared in assay buffer from 10 mM stock in DMSO) was added to the assay plate and incubated for 1 hour at room temperature. For detection, assay plates were read on SpectraMax Microplate Reader (Molecular Devices), with Excitation wavelength=360 nm and Emission wavelength=460 nm. Test compound effects were normalized to the window defined by the controls, DMSO/buffer, and DMSO/50 pM human PTPN2. Calculated % effects were fit using a 4-parameter algorithm, and EC50 was reported.

Assay [2] concerns the target human PTPN1 (1-435) (Homo sapiens (Human), UniProt P18031). Put plainly: Human PTPN1 Biochemical Assay. The conditions noted are these: DiFMUP substrate, read-out: PTP1B IC50. The protocol:
Human PTPN1 Biochemical Assay
Test compounds were dissolved in DMSO, and 10-point serial 3-fold dilution series in DMSO were prepared in Echo Qualified 384-well Polypropylene Microplates (Labcyte, San Jose, CA) (top concentration 50 µM). […] 5 μl of assay buffer was added into the low control. The plate was incubated for 30 minutes at room temperature. Subsequently, 5 μl of 100 µM DiFMUP (6,8-difluoro-4-methylumbelliferyl phosphate) solution (prepared in assay buffer from 10 mM stock in DMSO) was added to the assay plate and incubated for 1 hour at room temperature. For detection, assay plates were read on SpectraMax Microplate Reader (Molecular Devices), with Excitation wavelength=360 nm and Emission wavelength=460 nm. […] Calculated % effects were fit using a 4-parameter algorithm, and EC50 was reported.

human PTPN2 (1-387), sequence (P17706 other isoform, or with tags, fused parts or gaps): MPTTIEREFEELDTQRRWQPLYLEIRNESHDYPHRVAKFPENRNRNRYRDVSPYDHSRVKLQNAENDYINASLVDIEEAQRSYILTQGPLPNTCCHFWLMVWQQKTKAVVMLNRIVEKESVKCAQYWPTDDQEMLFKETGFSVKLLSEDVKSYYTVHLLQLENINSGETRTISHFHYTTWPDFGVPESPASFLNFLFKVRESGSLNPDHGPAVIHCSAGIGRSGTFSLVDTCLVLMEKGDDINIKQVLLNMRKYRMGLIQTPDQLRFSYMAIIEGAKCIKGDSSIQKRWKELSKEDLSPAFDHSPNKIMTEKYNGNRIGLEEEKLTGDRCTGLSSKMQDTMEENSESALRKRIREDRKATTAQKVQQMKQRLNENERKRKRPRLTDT
human PTPN1 (1-435), sequence (P18031 whole entry): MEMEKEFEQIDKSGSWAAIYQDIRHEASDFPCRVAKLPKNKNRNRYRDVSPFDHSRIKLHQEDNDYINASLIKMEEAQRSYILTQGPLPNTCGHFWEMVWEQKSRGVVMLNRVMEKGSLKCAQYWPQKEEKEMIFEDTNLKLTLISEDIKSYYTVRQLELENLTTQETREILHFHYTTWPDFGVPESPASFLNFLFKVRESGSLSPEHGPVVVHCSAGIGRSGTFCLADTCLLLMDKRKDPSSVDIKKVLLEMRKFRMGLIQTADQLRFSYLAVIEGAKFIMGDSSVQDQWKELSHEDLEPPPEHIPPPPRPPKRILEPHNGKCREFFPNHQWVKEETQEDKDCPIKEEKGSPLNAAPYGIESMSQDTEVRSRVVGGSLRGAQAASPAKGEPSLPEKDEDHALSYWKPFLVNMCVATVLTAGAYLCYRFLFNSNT

As for `NC(=O)c1cc(NCCCS(N)(=O)=O)c2sc(C(F)(F)P(=O)(O)O)c(Br)c2c1` [Compound 312], the IC50 came to 0.0712 µM in assay [1] and 0.0791 µM in assay [2].

`O=C(NCc1cccnc1C(F)(F)F)c1ccc2sc(C(F)(F)P(=O)(O)O)c(Br)c2c1` [Compound 120]: the IC50 in assay [1] amounted to 4.99 µM; in assay [2], 3.79 µM.

Consider `Cc1c[nH]c(CNC(=O)c2ccc3sc(C(F)(F)P(=O)(O)O)c(Br)c3c2)n1` [Compound 198], for which the IC50 in assay [1] is 5.46 µM; in assay [2], 5.71 µM.

Take `N#CC1(c2ccc(COc3cc(C(N)=O)cc4c(Br)c(C(F)(F)P(=O)(O)O)sc34)cc2)CC1` [Compound 288]: the figures for the half-maximal inhibitory concentration (IC50) in assay [1] and in assay [2] were 0.00686 µM and 0.0073 µM, respectively.

Take `NC(=O)c1cc(OCCCCS(N)(=O)=O)c2sc(C(F)(F)P(=O)(O)O)c(Br)c2c1` [Compound 308]: the values for the IC50 in assay [1] and in assay [2] were 0.0252 µM and 0.0234 µM, respectively.

On to `COCCN(CCOC)C(=O)c1ccc2sc(C(F)(F)P(=O)(O)O)c(Br)c2c1` [Compound 7, ((5-(bis(2-methoxyethyl)carbamoyl)-3-bromobenzo[b]thiophen-2-yl)difluoromethyl)phosphonic acid], for which the IC50 turned out to be 1.33 µM in assay [1] and 0.764 µM in assay [2].

Take `CC(C)(O)CCCOc1cc(C(N)=O)cc2c(C(F)(F)F)c(C(F)(F)P(=O)(O)O)sc12` [Compound 456, ((5-carbamoyl-7-((4-hydroxy-4-methylpentyl)oxy)-3-(trifluoromethyl)benzo[b]thiophen-2-yl)difluoromethyl)phosphonic acid]: the figures for the IC50 in assay [1] and in assay [2] were 0.0141 µM and 0.0232 µM, respectively.

For the compound `N#Cc1c(C(F)(F)P(=O)(O)O)sc2c(OCC3CC3(F)F)cc(C(N)=O)cc12` (stereo not drawn) [Compound 425], the IC50 in assay [1] worked out at 0.0228 µM; in assay [2] it was 0.0308 µM.

As for `NC(=O)c1cc(OCCCC2(O)CC2)c2sc(C(F)(F)P(=O)(O)O)c(Br)c2c1` [Compound 331], the IC50 in assay [1] amounted to 0.0238 µM; in assay [2] it was 0.0288 µM.

With `O=C(NCCc1c[nH]c2ccc(F)cc12)c1ccc2sc(C(F)(F)P(=O)(O)O)c(Br)c2c1` [Compound 94], the figures for the IC50 in assay [1] and in assay [2] were 2.8 µM and 2.4 µM, respectively.

In the case of `O=C(Nc1ccccc1)c1cc(OCCCC(F)(F)F)c2sc(C(F)(F)P(=O)(O)O)c(Br)c2c1` [Compound 205], the results for the IC50 in assay [1] and in assay [2] were 0.00695 µM and 0.0075 µM, respectively.

Regarding `O=P(O)(O)C(F)(F)c1sc2c(OCCCC(F)(F)F)cc(-c3cn[nH]c3)cc2c1Br` [Compound 404, ((3-bromo-5-(1H-pyrazol-4-yl)-7-(4,4,4-trifluorobutoxy)benzo[b]thiophen-2-yl)difluoromethyl)phosphonic acid], the IC50 is 0.224 µM in assay [1] and 0.287 µM in assay [2].

For the compound `O=C(NCCn1nncc1-c1ccccc1)c1ccc2sc(C(F)(F)P(=O)(O)O)c(Br)c2c1` [Compound 150], the IC50 in assay [1] was determined as 6.28 µM; in assay [2] it was 2.59 µM.

Take `NC(=O)c1cc(OCCC2CCC2)c2sc(C(F)(F)P(=O)(O)O)c(Br)c2c1` [Compound 317]: the IC50 in assay [1] was determined as 0.0685 µM; in assay [2], 0.0684 µM.

As for `Cc1c(C(F)(F)P(=O)(O)O)sc2c(OCc3ccc(S(C)(=O)=O)cc3)cc(C(N)=O)cc12` [Compound 438], the IC50 came out at 0.0215 µM in assay [1] and 0.0274 µM in assay [2].

Take `O=P(O)(O)C(F)(F)c1sc2ccc(-c3nnc[nH]3)cc2c1Br` [Compound 227, ((3-bromo-5-(4H-1,2,4-triazol-3-yl)benzo[b]thiophen-2-yl)difluoromethyl)phosphonic acid]: the IC50 was 0.856 µM in assay [1] and 1 µM in assay [2].

On to `O=C(N[C@H]1CCCNC1=O)c1ccc2sc(C(F)(F)P(=O)(O)O)c(Br)c2c1` [Compound 97], for which the IC50 came out at 8.23 µM in assay [1] and 7.08 µM in assay [2].

Regarding `COc1cc(Cl)ccc1COc1cc(C(N)=O)cc2c(Br)c(C(F)(F)P(=O)(O)O)sc12` [Compound 362], the IC50 in assay [1] was found to be 0.0428 µM; in assay [2], 0.0767 µM.

Consider `O=C(N[C@@H]1CCCC[C@H]1c1ccccc1)c1ccc2sc(C(F)(F)P(=O)(O)O)c(Br)c2c1` [Compound 86], for which the results for the concentration for half-maximal inhibition (IC50) in assay [1] and in assay [2] were 1.45 µM and 3.78 µM, respectively.

Turning to `O=C(NCCc1c[nH]c2ccccc12)c1ccc2sc(C(F)(F)P(=O)(O)O)c(Br)c2c1` [Compound 153], the 50% inhibitory concentration (IC50) in assay [1] came out at 1.95 µM; in assay [2], 3.16 µM.

In the case of `O=C(Nc1cccc(OC(F)(F)F)c1)c1ccc2sc(C(F)(F)P(=O)(O)O)c(Br)c2c1` [Compound 18], the IC50 was determined as 2.17 µM in assay [1] and 1.33 µM in assay [2].

`CS(=N)(=O)Cc1cc(OCCCC(F)(F)F)c2sc(C(F)(F)P(=O)(O)O)c(Br)c2c1` (single isomer, unassigned) [Compound 411, ((3-bromo-5-(((R or S)-methylsulfonimidoyl)methyl)-7-(4,4,4-trifluorobutoxy)benzo[b]thiophen-2-yl)difluoromethyl)phosphonic acid]: the IC50 is 0.251 µM in assay [1] and 0.299 µM in assay [2].

Turning to `Cc1cc(C)c(COc2cc(C(N)=O)cc3c(Br)c(C(F)(F)P(=O)(O)O)sc23)c(C)c1` [Compound 352], the IC50 was 0.364 µM in assay [1] and 0.692 µM in assay [2].

For `CC(C)(O)CCCOc1cc(C(N)=O)cc2c(Br)c(C(F)(F)P(=O)(O)O)sc12` [Compound 306], the IC50 in assay [1] is 0.0164 µM; in assay [2] it was 0.0257 µM.

With `O=C(NC(c1cccnc1)C(F)(F)F)c1ccc2sc(C(F)(F)P(=O)(O)O)c(Br)c2c1` (single isomer, unassigned) [Compound 222a, (S or R)-((3-bromo-5-((2,2,2-trifluoro-1-(pyridin-3-yl)ethyl)carbamoyl)benzo[b]thiophen-2-yl)difluoromethyl)phosphonic acid], the IC50 in assay [1] stood at 1.88 µM; in assay [2], 1.62 µM.

As for `O=C(NCc1ccc(F)nc1)c1ccc2sc(C(F)(F)P(=O)(O)O)c(Br)c2c1` [Compound 133], the IC50 turned out to be 1.18 µM in assay [1] and 1.45 µM in assay [2].

As for `CS(=O)(=O)c1ccc(COc2cc(C(N)=O)cc3c(Br)c(C(F)(F)P(=O)(O)O)sc23)cc1Cl` [Compound 390], the half-maximal inhibitory concentration (IC50) amounted to 0.004 µM in assay [1] and 0.0087 µM in assay [2].

In the case of `O=C(NCc1n[nH]c(=O)[nH]1)c1ccc2sc(C(F)(F)P(=O)(O)O)c(Br)c2c1` [Compound 187], the IC50 in assay [1] came to 1.86 µM; in assay [2] it was 0.961 µM.

For `CNC(=O)c1cc(OCCCC(C)(F)F)c2sc(C(F)(F)P(=O)(O)O)c(Br)c2c1` [Compound 326], the IC50 was determined as 0.0161 µM in assay [1] and 0.0025 µM in assay [2].

Consider `O=C(NCc1ccc(C(F)(F)F)nc1)c1ccc2sc(C(F)(F)P(=O)(O)O)c(Br)c2c1` [Compound 121], for which the IC50 came to 3.1 µM in assay [1] and 2.31 µM in assay [2].

With `CCC(=O)CCCOc1cc(C(N)=O)cc2c(Br)c(C(F)(F)P(=O)(O)O)sc12` [Compound 332], the IC50 in assay [1] came to 0.0281 µM; in assay [2] it was 0.0299 µM.

Take `CNC(=O)c1cc(OCC2CC2(F)F)c2sc(C(F)(F)P(=O)(O)O)c(Br)c2c1` (stereo not drawn) [Compound 321]: the IC50 was 0.0241 µM in assay [1] and 0.0251 µM in assay [2].

As for `NC(=O)c1cc(OCCC2CCCS2(=O)=O)c2sc(C(F)(F)P(=O)(O)O)c(Br)c2c1` (stereo not drawn) [Compound 264, ((3-bromo-5-carbamoyl-7-(2-(1,1-dioxidotetrahydrothiophen-2-yl)ethoxy)benzo[b]thiophen-2-yl)difluoromethyl)phosphonic acid], the IC50 worked out at 0.0263 µM in assay [1] and 0.024 µM in assay [2].

With `O=C(NCCCC(F)(F)F)c1ccc2sc(C(F)(F)P(=O)(O)O)c(Br)c2c1` [Compound 47], the figures for the concentration for half-maximal inhibition (IC50) in assay [1] and in assay [2] were 4.91 µM and 4.21 µM, respectively.

For the compound `O=C1CCC(CNC(=O)c2ccc3sc(C(F)(F)P(=O)(O)O)c(Br)c3c2)N1` (stereo not drawn) [Compound 136], the IC50 in assay [1] was found to be 4.25 µM; in assay [2], 3.76 µM.

In the case of `CCOCCCOc1cc(C(N)=O)cc2c(Br)c(C(F)(F)P(=O)(O)O)sc12` [Compound 273], the half-maximal inhibitory concentration (IC50) in assay [1] was 0.132 µM; in assay [2], 0.093 µM.

`Cc1c(C(F)(F)P(=O)(O)O)sc2c(OCCCC(F)(F)F)cc(C(N)=O)cc12` [Compound 431]: the IC50 in assay [1] turned out to be 0.119 µM; in assay [2] it was 0.0993 µM.

For the compound `O=C(NCc1c[nH]nn1)c1cc(F)c2sc(C(F)(F)P(=O)(O)O)c(Br)c2c1` [Compound 165], the values for the IC50 in assay [1] and in assay [2] were 0.39 µM and 0.675 µM, respectively.

For the compound `Cc1c(C(F)(F)P(=O)(O)O)sc2c(OCCCS(C)(=O)=O)cc(C(N)=O)cc12` [Compound 429, ((5-carbamoyl-3-methyl-7-(3-(methylsulfonyl)propoxy)benzo[b]thiophen-2-yl)difluoromethyl)phosphonic acid], the half-maximal inhibitory concentration (IC50) worked out at 0.0872 µM in assay [1] and 0.0821 µM in assay [2].

What is called IC50 is the concentration at which inhibition is half-maximal.

For the origin of these results see US20250059220A1, “SUBSTITUTED BENZOTHIOPHENE DERIVATIVES AND METHODS OF USE THEREOF” (Merck Sharp & Dohme LLC, priority 2021, published 2025).
